Experimental data from patent US9920061B2, “Imidazo[1,5-A]pyrimidinyl carboxamide compounds and their use in the treatment of medical disorders” (Lysosomal Therapeutics Inc., priority 2016, dated 2018).
≈ marks a conversion by molar mass, not a printed value.

How the values were obtained:
[1] = target: T1, glucocerebrosidase (Gcase) (Homo sapiens, UniProt P04062); experiment: Glucocerebrosidase (Gcase) activation assay, 4-methylumbelliferyl-beta-D-glucopyranoside substrate, with saposin C; assay type: biochemical; settings: for activation at 0.1 µM: 0.1 μM test compound, read-out: Percent Gcase Activation 0.1 μM Test Compound; for activation at 1 µM: 1 μM test compound, read-out: Percent Gcase Activation 1 μM Test Compound
T1 sequence (P04062 40-536): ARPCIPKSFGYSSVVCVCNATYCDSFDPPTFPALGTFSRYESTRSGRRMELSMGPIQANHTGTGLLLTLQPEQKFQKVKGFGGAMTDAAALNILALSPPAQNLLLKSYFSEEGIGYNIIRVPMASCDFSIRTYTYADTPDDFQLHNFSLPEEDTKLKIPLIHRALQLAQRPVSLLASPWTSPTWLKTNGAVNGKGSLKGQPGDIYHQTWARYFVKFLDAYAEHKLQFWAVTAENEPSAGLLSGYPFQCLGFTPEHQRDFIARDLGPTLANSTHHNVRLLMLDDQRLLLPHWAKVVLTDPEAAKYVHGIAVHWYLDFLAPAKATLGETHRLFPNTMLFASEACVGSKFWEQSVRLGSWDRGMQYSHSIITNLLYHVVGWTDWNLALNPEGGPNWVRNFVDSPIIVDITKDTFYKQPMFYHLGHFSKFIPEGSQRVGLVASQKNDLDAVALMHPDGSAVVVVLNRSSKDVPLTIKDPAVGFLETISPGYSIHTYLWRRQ
Experimental: The ability of exemplary compounds to activate glucocerebrosidase (Gcase) was measured.
A 484 μL aliquot of a 1.0 mg/mL solution of phosphatidylserine (PS) (Sigma P7769) in chloroform was evaporated under a stream of nitrogen for 1 hour. The lipid film was dissolved over 4 minutes of vigorous vortexing in 40 mL of 176 mM K2HPO4/50 mM citric acid (pH 4.7) containing 7.5 μL of triton X-100, resulting in a mixed micellar preparation with a composition of 0.32 mM triton and 0.37 mol % PS. 4-Methylumbelliferyl-beta-D-glucopyranoside (ACROS-337025000) was dissolved in the micellar solution to a final concentration of 2 mM for use as the reaction substrate.
Test compounds were diluted to the desired concentrations with dimethylsulfoxide (DMSO) from 10 mM stocks, and 0.41 μL of the DMSO compound mixture was added to 100 μL of micellar solution containing 10 nM GCase and 100 nM saposin C (Enzo ALX-201-262-C050). Pre-incubation was allowed to occur for 30 minutes at room temperature, after which the reaction was initiated by combining 25 μL of substrate solution with 25 μL of compound/GCase/saposin mixture. The reaction proceeded for 15 minutes at room temperature and was stopped by adding 150 μL of 1M glycine, pH 12.5. The endpoint of the reaction was monitored by measuring fluorescence intensity (excitation: 365 nm; emission: 440 nm) on a SpectraMax i3 instrument (Molecular Devices). Test compounds were screened at 1.0 and 0.1 μM final concentration, and subsequent 8-point dose response curves were obtained using 3-fold dilutions from a maximum final concentration of […].

[2] = Compound solubility in water; assay type: physicochemical

For CCCCO[C@H]1C[C@H]2CC[C@@H](C1)[C@H]2NC(=O)c1ncn2c(C)cc(-c3cccnc3)nc12 [III-63], which activation at 0.1 µM [1] is on record?
Its activation at 0.1 µM is over 20%.

And the activation at 1 µM [1]?
Its activation at 1 µM is over 60%.

And the solubility [2]?
Its solubility is 3.5 µg/mL (≈ 8.07 µM).

What does the source list for Cc1cc(-c2cccnc2)nc2c(C(=O)N[C@H]3CC[C@H](OC(C)(C)C)CC3)ncn12 [III-64]?
activation at 0.1 µM [1]: < 10%; activation at 1 µM [1]: < 30%; solubility [2]: 32.2 µg/mL (≈ 79 µM)

What does the source list for CCCO[C@H]1CC[C@H](NC(=O)c2ncn3c(C)cc(-c4cccnc4)nc23)CC1 [III-65]?
activation at 0.1 µM [1]: < 10%; activation at 1 µM [1]: < 30%; solubility [2]: 15.4 µg/mL (≈ 39.1 µM)

For Cc1cc(-c2cccnc2)nc2c(C(=O)N[C@H]3CC[C@H](OCC(C)C)CC3)ncn12 [III-66], which activation at 0.1 µM [1] is on record?
Its activation at 0.1 µM is under 10%.

And the activation at 1 µM [1]?
Its activation at 1 µM is 30 to 60%.

What about the solubility [2] of the same molecule?
The solubility was 16 µg/mL (≈ 39.3 µM).

What does the source list for Cc1cc(-n2ccnc2)nc2c(C(=O)NC(C)(C)C3CC3)ncn12 [III-67]?
activation at 0.1 µM [1]: < 10%; activation at 1 µM [1]: < 30%; solubility [2]: 23.4 µg/mL (≈ 72.1 µM)

What does the source list for Cc1cc(-n2cncn2)nc2c(C(=O)NC(C)(C)C3CC3)ncn12 [III-68]?
activation at 0.1 µM [1]: < 10%; activation at 1 µM [1]: < 30%; solubility [2]: 27.3 µg/mL (≈ 83.9 µM)

Which activation at 0.1 µM [1] does the source give for Cc1cc(-c2ccnn2C)nc2c(C(=O)NC(C)(C)C3CC3)ncn12 [III-69] here?
The activation at 0.1 µM was under 10%.

What about the activation at 1 µM [1] of the same molecule?
The activation at 1 µM was under 30%.

And the solubility [2]?
Its solubility is 8.5 µg/mL (≈ 25.1 µM).

Which activation at 0.1 µM [1] does the source give for Cc1cc(-n2cccn2)nc2c(C(=O)NC(C)(C)C3CC3)ncn12 [III-70] here?
Its activation at 0.1 µM is under 10%.

What about the activation at 1 µM [1] of the same molecule?
The activation at 1 µM was 30 to 60%.

What about the solubility [2] of the same molecule?
Its solubility is 10.5 µg/mL (≈ 32.4 µM).

Which activation at 0.1 µM [1] does the source give for Cc1cc(-c2cccnc2)nc2c(C(=O)NC(C3CC3)C(F)(F)F)ncn12 (stereo not drawn) [III-71] here?
Its activation at 0.1 µM is under 10%.

What about the activation at 1 µM [1] of the same molecule?
The activation at 1 µM was over 60%.

What about the solubility [2] of the same molecule?
Its solubility is 22.5 µg/mL (≈ 59.9 µM).

For Cc1cc(-c2ccccn2)nc2c(C(=O)NC(C3CC3)C(F)(F)F)ncn12 (stereo not drawn) [III-72], which activation at 0.1 µM [1] is on record?
The activation at 0.1 µM was 10 to 20%.

And the activation at 1 µM [1]?
The activation at 1 µM was over 60%.

And the solubility [2]?
The solubility was 4.7 µg/mL (≈ 12.5 µM).

Which activation at 0.1 µM [1] does the source give for CO[C@H]1CC[C@H](C(C)(C)NC(=O)c2ncn3c(C)cc(-c4cccnc4)nc23)CC1 [III-73] here?
The activation at 0.1 µM was under 10%.

What about the activation at 1 µM [1] of the same molecule?
The activation at 1 µM was under 30%.

And the solubility [2]?
Its solubility is 19.3 µg/mL (≈ 47.4 µM).

What does the source list for CO[C@H]1CC[C@@H](C(C)(C)NC(=O)c2ncn3c(C)cc(-c4cccnc4)nc23)CC1 [III-74]?
activation at 0.1 µM [1]: < 10%; activation at 1 µM [1]: 30 to 60%; solubility [2]: 19.3 µg/mL (≈ 47.4 µM)

With Cc1cc(-c2ccc(Cl)nc2)nc2c(C(=O)N[C@@H](C)C3CC3)ncn12 [III-75] as the molecule, how does the activation at 0.1 µM [1] read?
Its activation at 0.1 µM is under 10%.

What about the activation at 1 µM [1] of the same molecule?
Its activation at 1 µM is 30 to 60%.

And the solubility [2]?
The solubility was 4.9 µg/mL (≈ 13.8 µM).

With Cc1cc(-c2ccc(Cl)nc2)nc2c(C(=O)NC(C)(C)C3CC3)ncn12 [III-76] as the molecule, how does the activation at 0.1 µM [1] read?
The activation at 0.1 µM was 10 to 20%.

And the activation at 1 µM [1]?
Its activation at 1 µM is over 60%.

What about the solubility [2] of the same molecule?
The solubility was 1.1 µg/mL (≈ 2.97 µM).

For Cc1cc(C2CCCOC2)nc2c(C(=O)NC(C)(C)C3CC3)ncn12 (stereo not drawn) [III-78], which activation at 0.1 µM [1] is on record?
The activation at 0.1 µM was under 10%.

And the activation at 1 µM [1]?
Its activation at 1 µM is under 30%.

What about the solubility [2] of the same molecule?
The solubility was 23.2 µg/mL (≈ 67.7 µM).

For Cc1cc(-c2ccc(F)cc2)nc2c(C(=O)N[C@@H](C)C3CCC3)ncn12 [III-79], which activation at 0.1 µM [1] is on record?
The activation at 0.1 µM was 10 to 20%.

What about the activation at 1 µM [1] of the same molecule?
The activation at 1 µM was over 60%.

What about the solubility [2] of the same molecule?
The solubility was 3 µg/mL (≈ 8.51 µM).

With Cc1cc(-c2ccc(F)cc2)nc2c(C(=O)NC(C)C3CCCO3)ncn12 (stereo not drawn) [III-80] as the molecule, how does the activation at 0.1 µM [1] read?
The activation at 0.1 µM was under 10%.

And the activation at 1 µM [1]?
The activation at 1 µM was under 30%.

And the solubility [2]?
The solubility was 14.5 µg/mL (≈ 39.4 µM).

Which activation at 0.1 µM [1] does the source give for Cc1cc(-c2cn(C)nn2)nc2c(C(=O)NC(C)(C)C3CC3)ncn12 [III-82] here?
The activation at 0.1 µM was under 10%.

What about the activation at 1 µM [1] of the same molecule?
Its activation at 1 µM is under 30%.

What about the solubility [2] of the same molecule?
The solubility was 22.8 µg/mL (≈ 67.2 µM).

Which activation at 0.1 µM [1] does the source give for Cc1cc(-c2ccc(F)c(F)c2)nc2c(C(=O)NC(C)C3CC3)ncn12 (stereo not drawn) [III-85] here?
Its activation at 0.1 µM is over 20%.

And the activation at 1 µM [1]?
Its activation at 1 µM is over 60%.

What about the solubility [2] of the same molecule?
Its solubility is 1.2 µg/mL (≈ 3.37 µM).

For Cc1cc(-c2ccccc2)nc2c(C(=O)NC(C)C3CC3)ncn12 (stereo not drawn) [III-86], which activation at 0.1 µM [1] is on record?
The activation at 0.1 µM was over 20%.

And the activation at 1 µM [1]?
Its activation at 1 µM is over 60%.

And the solubility [2]?
The solubility was 13.1 µg/mL (≈ 40.9 µM).

For Cc1cc(-c2ccc(F)cc2)nc2c(C(=O)NC(C3CC3)C3CC3)ncn12 [III-87], which activation at 0.1 µM [1] is on record?
Its activation at 0.1 µM is over 20%.

What about the activation at 1 µM [1] of the same molecule?
The activation at 1 µM was over 60%.

And the solubility [2]?
Its solubility is 2.2 µg/mL (≈ 6.04 µM).

With Cc1cc(-c2ccc(F)cc2)nc2c(C(=O)NC(C)(C)C)ncn12 [III-88] as the molecule, how does the activation at 0.1 µM [1] read?
Its activation at 0.1 µM is under 10%.

And the activation at 1 µM [1]?
The activation at 1 µM was over 60%.

What about the solubility [2] of the same molecule?
Its solubility is 2 µg/mL (≈ 6.13 µM).

What does the source list for Cc1cc(-c2cccnc2)nc2c(C(=O)NC(C)(C)C)ncn12 [III-89]?
activation at 0.1 µM [1]: < 10%; activation at 1 µM [1]: < 30%; solubility [2]: 24.5 µg/mL (≈ 79.2 µM)

With CCNc1cc(C)n2cnc(C(=O)NC(c3ccc(F)cc3)C(F)(F)F)c2n1 (stereo not drawn) [III-90] as the molecule, how does the activation at 0.1 µM [1] read?
The activation at 0.1 µM was over 20%.

And the activation at 1 µM [1]?
The activation at 1 µM was over 60%.

And the solubility [2]?
Its solubility is 2.2 µg/mL (≈ 5.56 µM).
